Test results taken from patent US20150105252A1, “SUBSTITUTED PYRAZOLES AS HERBICIDES” (E I DU PONT DE NEMOURS AND COMPANY, priority 2013, published 2015).

Tests used:
[1] = tested on: lambsquarters; test: Test C preemergence; type: in vivo, Chenopodium album; details: for Plant response rating (scale of 0 to 100), Lambsquarters: Preemergence, 250 g ai/ha; for Lambsquarters plant response rating / Plant response rating, Lambsquarters: preemergence; for Plant response rating, Lambsquarters: scale 0 to 100, 0 = no effect, 100 = complete control
Method in brief: (§1)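 Visual control ratings on a 0–100 scale (100 = complete control) made against untreated controls after 13 to 15 days in greenhouse. Compounds applied in surfactant-containing solvent mixture, either preemergence to loam/sand-sown seeds or postemergence to 1- to 4-leaf plants (2–18 cm) in peat medium.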

[2] = tested on: blackgrass; test: Test C postemergence; type: in vivo, Alopecurus myosuroides; details: for Plant response rating (scale of 0 to 100 where 0 is no effect and 100 is complete control), Blackgrass: Postemergence, 31 g ai/ha, visually evaluated after 13 to 15 days; for Blackgrass plant response rating / Plant response rating, Blackgrass: postemergence; for Blackgrass plant response rating: 62 g ai/ha, scale 0 to 100
Method in brief: as §1

[3] = tested on: ryegrass, Italian; test: Test C postemergence; type: in vivo, Lolium multiflorum; details: for Plant response rating (scale of 0 to 100 where 0 is no effect and 100 is complete control), Ryegrass, Italian: Postemergence, 31 g ai/ha, visually evaluated after 13 to 15 days; for Ryegrass, Italian plant response rating / Plant response rating, Ryegrass, Italian: postemergence; for Ryegrass, Italian plant response rating: 62 g ai/ha, scale 0 to 100
Method in brief: as §1

[4] = tested on: wheat; test: Test C postemergence; type: in vivo, Triticum aestivum; details: for Plant response rating (scale of 0 to 100 where 0 is no effect and 100 is complete control), Wheat: Postemergence, 31 g ai/ha, visually evaluated after 13 to 15 days; for Wheat plant response rating / Plant response rating, Wheat: postemergence; for Wheat plant response rating: 62 g ai/ha, scale 0 to 100
Method in brief: as §1

[5] = tested on: galium; test: Test C postemergence; type: in vivo, Galium aparine; details: for Plant response rating (scale of 0 to 100 where 0 is no effect and 100 is complete control), Galium: Postemergence, 31 g ai/ha, visually evaluated after 13 to 15 days; for Galium plant response rating / Plant response rating, Galium: postemergence; for Galium plant response rating: 62 g ai/ha, scale 0 to 100
Method in brief: as §1

[6] = tested on: corn; test: Test C postemergence; type: in vivo, Zea mays; details: for Plant response rating (scale of 0 to 100 where 0 is no effect and 100 is complete control), Corn: Postemergence, 31 g ai/ha, visually evaluated after 13 to 15 days; for Corn plant response rating / Plant response rating, Corn: postemergence; for Corn plant response rating: 62 g ai/ha, scale 0 to 100
Method in brief: as §1

[7] = tested on: crabgrass, large; test: Test C postemergence; type: in vivo, Digitaria sanguinalis; details: for Plant response rating (scale of 0 to 100 where 0 is no effect and 100 is complete control), Crabgrass, Large: Postemergence, 31 g ai/ha, visually evaluated after 13 to 15 days; for Crabgrass, Large plant response rating / Plant response rating, Crabgrass, Large: postemergence; for Crabgrass, Large plant response rating: 62 g ai/ha, scale 0 to 100
Method in brief: as §1

[8] = tested on: foxtail, giant; test: Test C postemergence; type: in vivo, Setaria faberii; details: for Plant response rating (scale of 0 to 100 where 0 is no effect and 100 is complete control), Foxtail, Giant: Postemergence, 31 g ai/ha, visually evaluated after 13 to 15 days; for Foxtail, Giant plant response rating / Plant response rating, Foxtail, Giant: postemergence; for Foxtail, Giant plant response rating: 62 g ai/ha, scale 0 to 100
Method in brief: as §1

[9] = tested on: morningglory; test: Test C postemergence; type: in vivo, Ipomoea coccinea; details: for Plant response rating (scale of 0 to 100 where 0 is no effect and 100 is complete control), Morningglory: Postemergence, 31 g ai/ha, visually evaluated after 13 to 15 days; for Morningglory plant response rating / Plant response rating, Morningglory: postemergence; for Morningglory plant response rating: 62 g ai/ha, scale 0 to 100
Method in brief: as §1

[10] = tested on: ragweed; test: Test C postemergence; type: in vivo, Ambrosia elation; details: for Plant response rating (scale of 0 to 100 where 0 is no effect and 100 is complete control), Ragweed: Postemergence, 31 g ai/ha, visually evaluated after 13 to 15 days; for Ragweed plant response rating / Plant response rating, Ragweed: postemergence; for Ragweed plant response rating: 62 g ai/ha, scale 0 to 100
Method in brief: as §1

[11] = tested on: soybean; test: Test C postemergence; type: in vivo, Glycine max; details: for Plant response rating (scale of 0 to 100 where 0 is no effect and 100 is complete control), Soybean: Postemergence, 31 g ai/ha, visually evaluated after 13 to 15 days; for Soybean plant response rating / Plant response rating, Soybean: postemergence; for Soybean plant response rating: 62 g ai/ha, scale 0 to 100
Method in brief: as §1

[12] = tested on: barnyardgrass; test: Test C postemergence; type: in vivo, Echinochloa crus-galli; details: for Plant response rating (scale of 0 to 100 where 0 is no effect and 100 is complete control), Barnyardgrass: Postemergence, 31 g ai/ha, visually evaluated after 13 to 15 days; for Barnyardgrass plant response rating / Plant response rating, Barnyardgrass: postemergence; for Barnyardgrass plant response rating: 62 g ai/ha, scale 0 to 100
Method in brief: as §1

[13] = tested on: waterhemp; test: Test C postemergence; type: in vivo, Amaranthus rudis; details: for Plant response rating (scale of 0 to 100 where 0 is no effect and 100 is complete control), Waterhemp: Postemergence, 31 g ai/ha, visually evaluated after 13 to 15 days; for Waterhemp plant response rating / Plant response rating, Waterhemp: postemergence; for Waterhemp plant response rating: 62 g ai/ha, scale 0 to 100
Method in brief: as §1

[14] = tested on: chickweed; test: Test C postemergence; type: in vivo, Stellaria media; details: for Plant response rating (scale of 0 to 100 where 0 is no effect and 100 is complete control), Chickweed: Postemergence, 31 g ai/ha, visually evaluated after 13 to 15 days; for Chickweed plant response rating / Plant response rating, Chickweed: postemergence; for Chickweed plant response rating: 62 g ai/ha, scale 0 to 100
Method in brief: as §1

[15] = 31 g ai/ha, visual rating, scale 0 to 100 (0 no effect, 100 complete control), 13 to 15 days
[16] = 250 g ai/ha, scale 0 to 100 (0 no effect, 100 complete control)
[17] = 125 g ai/ha, scale 0 to 100, 0 no effect, 100 complete control

## CCCNC(=O)c1cc(CC)n(Cc2ccnc(OC(F)F)c2)n1 [Compound 132]
[1]
  Plant response rating (scale of 0 to 100), Lambsquarters: 100
[1]; [15]
  Lambsquarters plant response rating: 100
[1]; 62 g ai/ha, scale 0 to 100 (0 no effect, 100 complete control), 13 to 15 days
  Lambsquarters plant response rating: 100
[1]; 125 g ai/ha, 13 to 15 days
  Plant response rating, Lambsquarters: 100
[2]
  Plant response rating (scale of 0 to 100 where 0 is no effect and 100 is complete control), Blackgrass: 5
  Blackgrass plant response rating: 5
[2]; [16]
  Plant response rating, Blackgrass: 25
[2]; [17]
  Plant response rating, Blackgrass: 10
[3]
  Plant response rating (scale of 0 to 100 where 0 is no effect and 100 is complete control), Ryegrass, Italian: 10
  Ryegrass, Italian plant response rating: 10
[3]; [16]
  Plant response rating, Ryegrass, Italian: 10
[3]; [17]
  Plant response rating, Ryegrass, Italian: 10
[4]
  Plant response rating (scale of 0 to 100 where 0 is no effect and 100 is complete control), Wheat: 5
  Wheat plant response rating: 10
[4]; [16]
  Plant response rating, Wheat: 15
[4]; [17]
  Plant response rating, Wheat: 10
[5]
  Plant response rating (scale of 0 to 100 where 0 is no effect and 100 is complete control), Galium: 55
  Galium plant response rating: 60
[5]; [16]
  Plant response rating, Galium: 75
[5]; [17]
  Plant response rating, Galium: 60
[6]
  Plant response rating (scale of 0 to 100 where 0 is no effect and 100 is complete control), Corn: 5
  Corn plant response rating: 5
[6]; [16]
  Plant response rating, Corn: 20
[6]; [17]
  Plant response rating, Corn: 75
[7]
  Plant response rating (scale of 0 to 100 where 0 is no effect and 100 is complete control), Crabgrass, Large: 5
  Crabgrass, Large plant response rating: 5
[7]; [16]
  Plant response rating, Crabgrass, Large: 55
[7]; [17]
  Plant response rating, Crabgrass, Large: 75
[8]
  Plant response rating (scale of 0 to 100 where 0 is no effect and 100 is complete control), Foxtail, Giant: 5
  Foxtail, Giant plant response rating: 10
[8]; [16]
  Plant response rating, Foxtail, Giant: 55
[8]; [17]
  Plant response rating, Foxtail, Giant: 35
[9]
  Plant response rating (scale of 0 to 100 where 0 is no effect and 100 is complete control), Morningglory: 30
  Morningglory plant response rating: 75
[9]; [16]
  Plant response rating, Morningglory: 98
[9]; [17]
  Plant response rating, Morningglory: 80
[10]
  Plant response rating (scale of 0 to 100 where 0 is no effect and 100 is complete control), Ragweed: 10
  Ragweed plant response rating: 10
[10]; [16]
  Plant response rating, Ragweed: 90
[10]; [17]
  Plant response rating, Ragweed: 55
[11]
  Plant response rating (scale of 0 to 100 where 0 is no effect and 100 is complete control), Soybean: 65
  Soybean plant response rating: 45
[11]; [16]
  Plant response rating, Soybean: 98
[11]; [17]
  Plant response rating, Soybean: 95
[12]
  Plant response rating (scale of 0 to 100 where 0 is no effect and 100 is complete control), Barnyardgrass: 5
  Barnyardgrass plant response rating: 5
[12]; [16]
  Plant response rating, Barnyardgrass: 50
[12]; [17]
  Plant response rating, Barnyardgrass: 10
[13]
  Plant response rating (scale of 0 to 100 where 0 is no effect and 100 is complete control), Waterhemp: 35
  Waterhemp plant response rating: 55
[13]; [16]
  Plant response rating, Waterhemp: 80
[13]; [17]
  Plant response rating, Waterhemp: 65
[14]
  Plant response rating (scale of 0 to 100 where 0 is no effect and 100 is complete control), Chickweed: 75
  Chickweed plant response rating: 70
[14]; [16]
  Plant response rating, Chickweed: 85
[14]; [17]
  Plant response rating, Chickweed: 75

## CCCc1cc(C(=O)NCC)nn1Cc1ccnc(C(F)(F)F)c1 [Compound 95]
[1]
  Plant response rating (scale of 0 to 100), Lambsquarters: 100
[1]; [15]
  Lambsquarters plant response rating: 100
[1]; 62 g ai/ha, 13 to 15 days
  Plant response rating, Lambsquarters: 100
[1]; 125 g ai/ha, scale 0 to 100, 0 is no effect, 100 is complete control
  Lambsquarters plant response rating: 100
[2]
  Plant response rating (scale of 0 to 100 where 0 is no effect and 100 is complete control), Blackgrass: 5
  Blackgrass plant response rating: 5
[2]; [16]
  Plant response rating, Blackgrass: 35
[2]; [17]
  Plant response rating, Blackgrass: 15
[3]
  Plant response rating (scale of 0 to 100 where 0 is no effect and 100 is complete control), Ryegrass, Italian: 5
  Ryegrass, Italian plant response rating: 5
[3]; [16]
  Plant response rating, Ryegrass, Italian: 30
[3]; [17]
  Plant response rating, Ryegrass, Italian: 5
[4]
  Plant response rating (scale of 0 to 100 where 0 is no effect and 100 is complete control), Wheat: 5
  Wheat plant response rating: 5
[4]; [16]
  Plant response rating, Wheat: 20
[4]; [17]
  Plant response rating, Wheat: 10
[5]
  Plant response rating (scale of 0 to 100 where 0 is no effect and 100 is complete control), Galium: 60
  Galium plant response rating: 80
[5]; [16]
  Plant response rating, Galium: 90
[5]; [17]
  Plant response rating, Galium: 90
[6]
  Plant response rating (scale of 0 to 100 where 0 is no effect and 100 is complete control), Corn: 5
  Corn plant response rating: 10
[6]; [16]
  Plant response rating, Corn: 10
[6]; [17]
  Plant response rating, Corn: 10
[7]
  Plant response rating (scale of 0 to 100 where 0 is no effect and 100 is complete control), Crabgrass, Large: 5
  Crabgrass, Large plant response rating: 10
[7]; [16]
  Plant response rating, Crabgrass, Large: 45
[7]; [17]
  Plant response rating, Crabgrass, Large: 40
[8]
  Plant response rating (scale of 0 to 100 where 0 is no effect and 100 is complete control), Foxtail, Giant: 5
  Foxtail, Giant plant response rating: 40
[8]; [16]
  Plant response rating, Foxtail, Giant: 60
[8]; [17]
  Plant response rating, Foxtail, Giant: 45
[9]
  Plant response rating (scale of 0 to 100 where 0 is no effect and 100 is complete control), Morningglory: 50
  Morningglory plant response rating: 50
[9]; [16]
  Plant response rating, Morningglory: 70
[9]; [17]
  Plant response rating, Morningglory: 50
[10]
  Plant response rating (scale of 0 to 100 where 0 is no effect and 100 is complete control), Ragweed: 45
  Ragweed plant response rating: 50
[10]; [16]
  Plant response rating, Ragweed: 85
[10]; [17]
  Plant response rating, Ragweed: 50
[11]
  Plant response rating (scale of 0 to 100 where 0 is no effect and 100 is complete control), Soybean: 45
  Soybean plant response rating: 50
[11]; [17]
  Plant response rating, Soybean: 80
[12]
  Plant response rating (scale of 0 to 100 where 0 is no effect and 100 is complete control), Barnyardgrass: 0
  Barnyardgrass plant response rating: 0
[12]; [16]
  Plant response rating, Barnyardgrass: 30
[12]; [17]
  Plant response rating, Barnyardgrass: 0
[13]
  Plant response rating (scale of 0 to 100 where 0 is no effect and 100 is complete control), Waterhemp: 30
  Waterhemp plant response rating: 30
[13]; [16]
  Plant response rating, Waterhemp: 30
[13]; [17]
  Plant response rating, Waterhemp: 30
[14]
  Plant response rating (scale of 0 to 100 where 0 is no effect and 100 is complete control), Chickweed: 85
  Chickweed plant response rating: 100
[14]; [16]
  Plant response rating, Chickweed: 100
[14]; [17]
  Plant response rating, Chickweed: 100
